The results in this text go back to patent publication US20110212484A1, “In Vitro Model of Focal Ischemia” (priority 2008, published 2011).

The test system of assay [1] is cortical neurons adjacent to the region of focal OGD perfusion. The assay can be described thus: Penumbra region of focal ischemia: intracellular recordings of membrane potential adjacent to the focal OGD perfusion. Type of assay: cell-based, rat. From the text: In order to mimic in vivo focal ischemia in the present in vitro system, oxygen-glucose deprived (OGD) medium was focally applied to a small area (0.25-0.5 mm wide or 5-10% of cortex) within the cortex of a brain slice, or within a slice of liver or heart tissue. […] The OGD medium for liver and heart slices was deoxygenated, glucose-free Krebs solution. Oxygen was displaced from the media by bubbling with 95% N2 and 5% CO2. […] Nozzle of the microperfusion system was made from a 23 gauge stainless steel tube and was mounted to a micromanipulator in order to ensure accurate placement. Using the micromanipulator the nozzle was lowered until it was just touching the surface of the slice.
OGD solution was focally perfused onto rat brain slices bathed in oxygenated aCSF solution. […] A representative recording of membrane potential is depicted in FIG. 5A. Focal perfusion of OGD caused neurons outside the region of perfusion to progressively depolarize. When edaravone (100 μM) was added to the OGD media this depolarization was attenuated. This is reflected in the mean data (FIG. 5B). Percentage neuronal survival after 75 minutes is reflected in FIG. 5C. Neurons were considered “dead” if they became irreversibly depolarized to approximately 0 mV. The addition of 100 μM edaravone doubled neuronal survival from OGD. […] In FIG. 5 the * denotes p<0.05.

The subject of another assay is cortical neurons. Kind of assay: Focal glutamate perfusion of brain slices, intracellular recordings of membrane potential. Conditions: aCSF containing 20 mM glutamate focally applied at 100 μL/min, neurons within the region of focal perfusion.
The test system of another assay is rat brain slices. The assay can be described thus: In vitro focal ischemia (focal OGD) in brain slices, TTC staining of infarct area. It counts as cell-based. Conditions: 100 μM lidocaine added to OGD media, focally applied 2 hours at 100 μL/min, TTC stain.

From the text for rat brain slices: In order to mimic in vivo focal ischemia in the present in vitro system, oxygen-glucose deprived (OGD) medium was focally applied to a small area (0.25-0.5 mm wide or 5-10% of cortex) within the cortex of a brain slice, or within a slice of liver or heart tissue. […] Oxygen was displaced from the media by bubbling with 95% N2 and 5% CO2. […] Nozzle of the microperfusion system was made from a 23 gauge stainless steel tube and was mounted to a micromanipulator in order to ensure accurate placement. Using the micromanipulator the nozzle was lowered until it was just touching the surface of the slice. […] In FIG. 1C, OGD solution was focally applied to the slice for 1 hour. […] In FIG. 1D, OGD solution was focally applied to the slice for 2 hours.

For `CC1=NN(c2ccccc2)C(=O)C1` [edaravone], the “progressive depolarization of neurons outside the region of perfusion” value in assay [1] (100 μM edaravone added to OGD media, approximately 0.9 mm from focal perfusion) was “attenuated”. Also, in assay [1] (100 μM edaravone, after 75 minutes, penumbra region), the “neuronal survival from OGD” value was “doubled”.

For `N[C@@H](CCC(=O)O)C(=O)O` [glutamate], the “membrane potential of neuron (depolarization)” value with cortical neurons is reported as “caused a rapid depolarization of the neuron”. `CCN(CC)CC(=O)Nc1c(C)cccc1C` [Lidocaine, lidocaine]: the “area of cell death caused by OGD” value with rat brain slices is listed as “reduced the area of cell death”.
